Test results reported in publication PMC9260180, “Blocking the Farnesyl Pocket of PDEδ Reduces Rheb-Dependent mTORC1 Activation and Survival of Tsc2-Null Cells” (Frontiers in Pharmacology, 2022).
“And” between values parts separate entries of the source, which are not always exact repeats. Identical values can stand only once.

Experiments:
[1] = system: Caco-2 cells; experiment: Caco-2 permeability assay
Method: To measure cellular permeability, Caco-2 cells were seeded on a transwell membrane in a 24-well format and grown for 3 weeks to form a monolayer of differentiated cells.

[2] = system: phospho-S6 ribosomal protein (Ser235/236) in Tsc2-null MEFs; experiment: S6 phosphorylation (pS6) by Western blot in Tsc2-null MEFs; assay type: cell-based, mouse; conditions: 0.5-6 µM, 24 h
Method: (§1) p53−/− Tsc2+/+ mouse embryonic fibroblast (MEF) and p53−/− Tsc2−/− MEF cells (hereinafter referred to as Tsc2-wt and Tsc2-null MEFs) were kindly provided by David J. Kwiatkowski (Harvard Medical School, Boston, MA, USA). MEF cells were cultured in Dulbecco’s modified Eagles’s medium (DMEM) (Corning, New York, USA), supplemented with 100 μg/ml streptomycin (HyClone), 100 U/ml penicillin (HyClone), 10% fetal bovine serum (Biological Industries, Cromwell, USA) and incubated at 37°C in 5% CO2.
Proteins were extracted in cold lysis buffer (50 mM Tris-HCl pH 7.4; 10% glycerol; 200 mM NaCl2; 2.5 mM MgCl2; 1% Triton X-100; 1/100 protease inhibitors; 1/100 phosphatase inhibitors) and the protein concentration was determined by Bradford assay. […] Immunolabeled proteins were detected using ECL Western Blotting Detection Reagent (GE Healthcare, Chicago, USA) and visualized in Syngene PXi6 Documentation System (Frederick, MD, USA).
For GFP proteins, Tsc2-wt MEF cells were electroporated with 3 µg of pEGFP-C1-RhebWT (GFP-Rheb) or pEGFP-C1 (GFP only) using NEON™ Transfection System (Invitrogen). […] Images were analyzed by confocal fluorescence microscopy using the LSM780 NLO Confocal Spectral Microscope (Carl Zeiss, Jena, Germany).

[3] = system: phospho-4EBP1 (Thr37/46, Thr70) in Tsc2-null MEFs; experiment: 4EBP1 phosphorylation by Western blot in Tsc2-null MEFs; assay type: cell-based, mouse; conditions: 24 h; for effect on 4EBP1 phosphorylation (p4EBP1 levels, top band): 6 µM; for change in electrophoretic pattern of total and phosphorylated 4EBP1: Deltasonamide 1 6 µM, rapamycin 20 nM
Method: as §1
(§2) Proteins were extracted in cold lysis buffer (50 mM Tris-HCl pH 7.4; 10% glycerol; 200 mM NaCl2; 2.5 mM MgCl2; 1% Triton X-100; 1/100 protease inhibitors; 1/100 phosphatase inhibitors) and the protein concentration was determined by Bradford assay. Total proteins were denaturized in loading buffer (50 mM Tris-HCl pH 6.8; 2% SDS; 0.1% bromophenol blue; 10% glycerol; 1% β-mercaptoethanol) by boiling for 5 min, separated by SDS-PAGE, and transferred to Polyvinylidene fluoride (PVDF) membrane (MilliporeSigma, Burlington, USA). For immunoblotting, all primary antibodies were diluted 1:1.000, except for anti-β-Actin antibody (1:10000 dilution). Secondary antibodies were diluted 1:10000. Immunolabeled proteins were detected using ECL Western Blotting Detection Reagent (GE Healthcare, Chicago, USA) and visualized in Syngene PXi6 Documentation System (Frederick, MD, USA).

[4] = system: EGF-induced S6 phosphorylation in pancreatic cancer cell lines; design: method as in Papke et al., 2016; conditions: another pancreatic cancer cell line; ref Papke et al., 2016; cited from earlier work
[5] = system: phospho-p70 S6 kinase (Thr389) in Tsc2-null MEFs; experiment: S6K phosphorylation (Thr389) by Western blot in Tsc2-null MEFs; conditions: 24 h
Text: Levels of phospho-p70 S6 kinase (Thr389) (pS6K) were detected by Western blot and measured using densitometric analysis.

[6] = system: Smad/Smurf; experiment: yeast two-hybrid LacZ quantitative measurement, Smad/Smurf control interaction; conditions: 7 and 24 h, titrated concentrations
Method: As a control, a yeast two-hybrid was performed using Smad (bait), Smurf (prey), and the empty vectors. To verify positive clones, diploid cells were grown on selective media either lacking tryptophan and leucine (DO-2) or lacking tryptophan, leucine, and histidine (DO-3). To detect lacZ gene expression, diploid cells co-transformed with bait and prey constructs were grown on DO-2 medium supplemented with X-gal substrate. […] To detect lacZ gene expression, diploid cells co-transformed with bait and prey constructs were grown on DO-2 medium supplemented with X-gal substrate. Co-transformed cells able to grow on DO-2 medium and form blue colonies in the presence of X-gal were considered positive bait-prey interaction.

[7] = system: Tsc2-null MEFs; experiment: BrdU assay in Tsc2-null MEFs; assay type: cell-based, mouse; conditions: 24 h, Deltasonamide 1 6 µM, rapamycin 20 nM
Method: BrdU (5-Bromo-2-deoxyuridine) labeling, and detection kit II (Roche, Basel, Switzerland) were used for the analysis. Briefly, cells were labeled 45 min with 50 µM BrdU and fixed for 20 min at […] with a fixing solution (15 mM glycine pH 2.0, 70% ethanol). Then, cells were incubated with anti-BrdU antibody (1:20 dilution) and nucleases in incubation buffer (66 mM Tris, 0.66 mM MgCl2, 1 mM β-mercaptoethanol) for 30 min at 37°C in a wet chamber. For secondary antibody, Alexa 555 anti-mouse conjugated (1:500 dilution) was used. The nuclei were labeled with Hoechst 33342 diluted 1:250. Finally, the samples were mounted on a slide with DAKO mounting medium. At least 3 images were captured using Olympus CKX41 fluorescence microscope for each condition. BrdU positive cells were analyzed using ImageJ software.

[8] = system: Tsc2-null MEFs; experiment: XTT viability assay in Tsc2-null MEFs; assay type: cell-based, mouse; conditions: after 24 h, Deltasonamide 1 6 µM, rapamycin 20 nM
Method: (§3) We used XTT based-Cell Proliferation Kit (Biological Industries, USA) according to the manufacturer’s instructions to assess cell viability and proliferation. Briefly, Tsc2-null or Tsc2-wt MEF cells were seeded in 96-well plates and grown in DMEM without phenol red (Biological Industries, Cromwell, USA) at 37°C in 5% CO2. […] After 4 h of incubation, viable cells were detected by measuring the absorbance at 450nm/630 nm using TECAN Infinite® 200 PRO microplate reader (Tecan Group Ltd. Männedorf, Switzerland). The results were expressed as a percentage of absorbance relative to the control group.

[9] = system: Tsc2-wt MEFs; experiment: XTT viability assay in Tsc2-wt MEFs; assay type: cell-based, mouse
Method: as §3

[10] = system: mTORC1 signaling in Tsc2-wt MEFs; experiment: mTORC1 signaling by immunoblotting in Tsc2-wt MEFs; assay type: cell-based, mouse; conditions: 4 h and 24 h, Deltasonamide 1 6 µM, rapamycin 20 nM
Method: as §2
Supplementary Figure 4. […].
and 24 h (right panel). Lysates were characterized by immunoblotting of the indicated proteins. Results
are representative of three independent experiments.
(§4) (1 picture or pasted object on this page, not shown here)

[11] = system: Tsc2-null MEFs; experiment: Live/Dead and CytoTox-Glo cell assay in Tsc2-null MEFs; conditions: Deltasonamide 1 6 µM, rapamycin 20 nM; for effect on cell numbers: vs DMSO
[12] = system: Rheb localization in Tsc2-wt MEF cells; experiment: GFP-Rheb cellular localization by confocal microscopy in Tsc2-wt MEFs; assay type: cell-based, mouse; conditions: Tsc2-wt MEF cells with GFP-Rheb, 6 µM, 24 h
Method: For GFP proteins, Tsc2-wt MEF cells were electroporated with 3 µg of pEGFP-C1-RhebWT (GFP-Rheb) or pEGFP-C1 (GFP only) using NEON™ Transfection System (Invitrogen). Briefly, 200.000 cells were electroporated with the 10 µl tips at 1100 V for 30 mseg (one pulse). […] Cells were fixed with 4% w/v paraformaldehyde (PFA) for 10 min and permeabilized with 0.1% Triton X-100 in Phosphate-Buffered Saline (PBS) for 30 min. Then, samples were blocked for 1 h with 3% BSA-PBS and incubated overnight with primary antibody (1:200 dilution) in a dark/wet chamber at 4°C. Next, fixed cells were incubated with secondary antibody (1:500 dilution) and Hoechst (1:250 dilution) for 1 h in the dark/wet chamber at room temperature. The coverslips were mounted on a slide with DAKO mounting medium (Agilent, Santa Clara, USA). Images were analyzed by confocal fluorescence microscopy using the LSM780 NLO Confocal Spectral Microscope (Carl Zeiss, Jena, Germany).
Supplementary Figure 5. Deltasonamide 1 affects the cellular localization of Rheb. Tsc2-wt MEF cells were transfected with pEGFP-C1-GFP-RhebWT (GFP -Rheb) or pEGFP-C1 (GFP only) and treated with 6µM Deltas onamide 1 or DMSO for 24 hours. GFP-Rheb and GFP levels were analyzed by immunofluorescence and confocal microscopy. Scale bar = 20 µm.
as §4

SMILES	Caco-2 (pH 6.5/7.4) Papp (A→B) ([1]; Caco-2, pH 6.5)	Caco-2 (pH 6.5/7.4) Papp (B→A) ([1]; Caco-2, pH 6.5)	effect on S6 phosphorylation (pS6) [2]	effect on 4EBP1 phosphorylation (p4EBP1 levels, top band) [3]	effect on EGF-induced S6 phosphorylation [4]	effect on S6K phosphorylation ([5]; 6 µM)	effect on the interaction between Smad and Smurf [6]	change in electrophoretic pattern of total and phosphorylated 4EBP1 [3]	effect on BrdU incorporation [7]	effect on cell viability (XTT) [8]	effect on cell viability (XTT) ([9]; 48 h, rapamycin 20 nM)	effect on mTORC1 activity/signaling [10]	effect on cell numbers ([11]; 24 h)	Caco-2 (pH 6.5/7.4) Papp (A→B) ([1]; 10 µM, 2 h, 37°C)	Caco-2 (pH 6.5/7.4) Papp (B→A) ([1]; 10 µM, 2 h, 37°C)	effect on cell viability (XTT) ([9]; 72 h, Deltasonamide 1 6 µM)	effect on intracellular Rheb distribution [12]	effect on dead cells ([11]; 24 h)	effect on percentage of dead cells ([11]; 48 h)	LogIC50 of pS6K levels (Figure 3) ([5]; 0.5–8 µM)
Cc1ccc(-n2nc3c(=O)n(CCCC(=O)NCC(C)c4ccccc4)nc(C)c3c2C)cc1 (stereo not shown) [Deltazinone 1]	41.1 10^−6 cm/s	25.1 10^−6 cm/s	did not affect	ineffective	ineffective	ineffective	not affected													
CO[C@H]1C[C@@H]2CC[C@@H](C)[C@@](O)(O2)C(=O)C(=O)N2CCCC[C@H]2C(=O)O[C@H]([C@H](C)C[C@@H]2CC[C@@H](O)[C@H](OC)C2)CC(=O)[C@H](C)/C=C(\C)[C@@H](O)[C@@H](OC)C(=O)[C@H](C)C[C@H](C)/C=C/C=C/C=C/1C [rapamycin]								caused the appearance of lower molecular weight bands	significantly reduced	significantly diminished	significantly affected	significantly affected	significantly decreased							
CNc1nccc(CN(CC2CCNCC2)S(=O)(=O)c2ccc(S(=O)(=O)N(Cc3ccc(Cl)cc3)C3CCCC3)cc2)n1 [Deltasonamide 1]			dose-dependently reduced	could not detect a significant effect			not affected	caused the appearance of lower molecular weight bands	significantly reduced	significantly diminished		did not affect	significantly decreased	1.6 10^−6 cm/s and 1.56 10^−6 cm/s	13.67 10^−6 cm/s	reduced	disrupted	not associated with an increase in dead cells	significantly increased	-5.347
